In brackets after ≈: the same amount, converted by molar mass. Activity calls are given as the source filed them. The calls are words filed in the database; no cut-off is given here.
Experiments:
[1] = 1-octanol/PBS distribution co-efficient, log D of the compound at […] at pH 7.4 after 30 mins by HPLC-MS/MS method; assay type: physicochemical
[2] = Metabolic stability in human liver microsomes after 0.5 hrs; assay type: ADME, microsome; conditions: read-out: Stability
[3] = target: T1, Peroxisome proliferator-activated receptor gamma (Homo sapiens, UniProt P37231); assay: Agonist activity at recombinant human GAL4-DBD fused PPARgamma LBD expressed in COS7 cells after 24 hrs by luciferase reporter gene assay; assay type: cell-based
T1 sequence (P37231 whole entry): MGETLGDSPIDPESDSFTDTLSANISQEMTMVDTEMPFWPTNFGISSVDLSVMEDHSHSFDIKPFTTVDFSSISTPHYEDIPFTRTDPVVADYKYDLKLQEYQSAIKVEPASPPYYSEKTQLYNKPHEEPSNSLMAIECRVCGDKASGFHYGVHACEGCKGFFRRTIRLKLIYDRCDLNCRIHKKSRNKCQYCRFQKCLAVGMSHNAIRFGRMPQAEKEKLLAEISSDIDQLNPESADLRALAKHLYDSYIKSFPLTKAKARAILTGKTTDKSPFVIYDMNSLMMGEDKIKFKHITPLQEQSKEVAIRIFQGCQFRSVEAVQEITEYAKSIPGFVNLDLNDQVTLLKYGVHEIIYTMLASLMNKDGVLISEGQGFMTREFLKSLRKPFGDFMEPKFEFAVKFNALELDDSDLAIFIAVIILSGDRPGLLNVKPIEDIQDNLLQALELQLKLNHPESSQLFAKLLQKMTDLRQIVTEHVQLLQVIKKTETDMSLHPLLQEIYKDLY

[4] = target: T2, Peroxisome proliferator-activated receptor gamma (Homo sapiens) (UniProt P37231); assay: Agonist activity at recombinant human GAL4-DBD fused PPARgamma LBD expressed in COS7 cells at 10 uM after 24 hrs by luciferase reporter gene assay relative to rosiglitazone; assay type: cell-based
T2 sequence (whole entry): T1 sequence (P37231 whole entry)

[5] = Aqueous thermodynamic solubility of the compound in pH 6.8 solution up to 4 hrs by HPLC-UV analysis; assay type: physicochemical; conditions: read-out: Therm_solubility
[6] = Apparent permeability of the compound after 4 hrs by PAMPA; assay type: ADME
[7] = target: T3, Peroxisome proliferator-activated receptor alpha (Homo sapiens, UniProt Q07869); assay: Agonist activity at recombinant human GAL4-DBD fused PPARalpha LBD expressed in COS7 cells after 24 hrs by luciferase reporter gene assay; assay type: cell-based
T3 sequence (Q07869 whole entry): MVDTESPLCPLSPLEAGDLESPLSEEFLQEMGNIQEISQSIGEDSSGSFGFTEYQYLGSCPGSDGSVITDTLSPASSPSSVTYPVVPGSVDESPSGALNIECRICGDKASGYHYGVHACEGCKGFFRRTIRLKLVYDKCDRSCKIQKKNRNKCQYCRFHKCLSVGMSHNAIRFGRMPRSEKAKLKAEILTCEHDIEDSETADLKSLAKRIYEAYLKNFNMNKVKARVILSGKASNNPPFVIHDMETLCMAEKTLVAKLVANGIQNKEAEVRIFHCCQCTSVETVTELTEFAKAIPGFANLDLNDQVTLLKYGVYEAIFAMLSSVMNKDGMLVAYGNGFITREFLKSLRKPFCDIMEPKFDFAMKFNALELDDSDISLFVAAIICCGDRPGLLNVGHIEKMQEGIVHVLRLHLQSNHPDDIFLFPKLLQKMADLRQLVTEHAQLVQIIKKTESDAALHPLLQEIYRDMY

[8] = target: T4, Peroxisome proliferator-activated receptor alpha (Homo sapiens) (UniProt Q07869); assay: Agonist activity at recombinant human GAL4-DBD fused PPARalpha LBD expressed in COS7 cells at 10 uM after 24 hrs by luciferase reporter gene assay relative to 2-(4-tert-Butylphenoxy)-3-[4-[2-[(4-pyridin-2-ylbenzoyl)amino]ethoxy] phenyl]propionic acid; assay type: cell-based
T4 sequence (whole entry): T3 sequence (Q07869 whole entry)

[9] = target: T5, Peroxisome proliferator-activated receptor delta (Homo sapiens) (UniProt Q03181); assay: Agonist activity at PPARdelta (unknown origin) at 10 uM
T5 sequence (whole entry): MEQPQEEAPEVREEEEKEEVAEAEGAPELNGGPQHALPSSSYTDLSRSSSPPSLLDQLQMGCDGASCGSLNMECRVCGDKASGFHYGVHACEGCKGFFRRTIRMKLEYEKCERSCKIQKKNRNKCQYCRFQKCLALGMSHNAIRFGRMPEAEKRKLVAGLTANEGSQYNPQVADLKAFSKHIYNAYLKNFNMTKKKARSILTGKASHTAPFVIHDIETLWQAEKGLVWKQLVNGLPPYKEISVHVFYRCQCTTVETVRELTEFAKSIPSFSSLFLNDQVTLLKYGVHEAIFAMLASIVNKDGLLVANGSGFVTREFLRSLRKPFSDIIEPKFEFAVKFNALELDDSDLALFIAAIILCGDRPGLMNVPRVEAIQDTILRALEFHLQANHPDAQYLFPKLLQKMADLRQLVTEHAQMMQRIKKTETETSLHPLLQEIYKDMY

Compound	logD at 0.5 h [1]	remaining at 0.5 h [2]	EC50 [3]	Emax [4]	solubility thermodynamic at 4 h [5]	Papp at 4 h [6]	EC50 [7]	Emax [8]	Activity [9]
Cn1c(COc2cccc(C(=O)O)c2)nc2ccc(Oc3ccccn3)cc21	0.4	100%	1.13 µM	74%	62 µg/mL (≈ 165 µM)	2.2 ×10⁻⁶ cm/s	> 10 µM	1%	–
Cn1c(COc2cccc(C(=O)O)c2)nc2ccc(Oc3ccc(F)cc3)nc21	1.5	78%	1.06 µM	62%	11 µg/mL (≈ 28 µM)	8.6 ×10⁻⁶ cm/s	–	55%	inactive
COC(=O)c1cccc(OCc2nc3ccc(Oc4ccccc4)nc3n2C)c1	–	–	12.4 µM	65%	–	–	–	–	–
Cc1ccc(Oc2ccc3nc(COc4cccc(C(=O)O)c4)n(C)c3n2)cc1F	2.1	96%	0.05 µM	80%	5.2 µg/mL (≈ 12.8 µM)	14.8 ×10⁻⁶ cm/s	–	56%	inactive
Cn1c(COc2cccc(C(=O)O)c2)nc2ccc(Oc3ncccc3Cl)cc21	1.1	99%	0.2 µM	93%	15 µg/mL (≈ 36.6 µM)	8.1 ×10⁻⁶ cm/s	> 10 µM	6%	–
Cc1cccnc1Oc1ccc2nc(COc3cccc(C(=O)O)c3)n(C)c2c1	0.9	100%	0.351 µM	83%	37 µg/mL (≈ 95 µM)	6 ×10⁻⁶ cm/s	> 10 µM	8%	–
Cn1c(COc2cccc(C(=O)O)c2)nc2cnc(Oc3ccc(Cl)c(F)c3)cc21	1.4	98%	1.17 µM	73%	11 µg/mL (≈ 25.7 µM)	11.2 ×10⁻⁶ cm/s	> 10 µM	15%	inactive
Cc1cc(F)cnc1Oc1ccc2nc(COc3cccc(C(=O)O)c3)n(C)c2c1	1.1	93%	–	100%	14 µg/mL (≈ 34.4 µM)	8.3 ×10⁻⁶ cm/s	> 10 µM	2%	–
Cc1ccc(Oc2cc3c(cn2)nc(COc2cccc(C(=O)O)c2)n3C)cc1	1	80%	0.746 µM	80%	360 µg/mL (≈ 924 µM)	6.8 ×10⁻⁶ cm/s	> 10 µM	6%	inactive
Cn1c(COc2cccc(C(=O)O)c2)nc2ccc(Oc3ncccc3F)cc21	0.6	100%	0.28 µM	80%	7.1 µg/mL (≈ 18 µM)	3.9 ×10⁻⁶ cm/s	> 10 µM	3%	–
Cc1ccc(Oc2ccc3nc(COc4cccc(C(=O)O)c4)n(C)c3c2)nc1	0.9	94%	0.129 µM	42%	31 µg/mL (≈ 79.6 µM)	4.8 ×10⁻⁶ cm/s	> 10 µM	4%	–
Cn1c(COc2cccc(C(=O)O)c2)nc2ccc(Oc3cccc(Cl)n3)cc21	1.2	98%	0.736 µM	67%	7.7 µg/mL (≈ 18.8 µM)	7.6 ×10⁻⁶ cm/s	> 10 µM	13%	–
Cc1cc(C)cc(Oc2ccc3nc(COc4cccc(C(=O)O)c4)n(C)c3n2)c1	2.3	71%	0.041 µM	83%	0.5 µg/mL (≈ 1.24 µM)	17.4 ×10⁻⁶ cm/s	> 10 µM	19%	inactive
Cl.Cl.Cn1c(COc2cccc(C(=O)O)c2)nc2ccc(Oc3ccccc3)nc21	1.2	100%	–	61%	160 µg/mL	–	–	–	inactive
Cn1c(COc2cccc(C(=O)O)c2)nc2cnc(Oc3ccc4c(c3)OCC4)cc21	0.6	100%	0.335 µM	59%	79 µg/mL (≈ 189 µM)	3.6 ×10⁻⁶ cm/s	> 10 µM	4%	inactive
Cc1ccc(C)c(Oc2ccc3nc(COc4cccc(C(=O)O)c4)n(C)c3c2)n1	1.4	–	0.717 µM	117%	85 µg/mL (≈ 211 µM)	11 ×10⁻⁶ cm/s	> 10 µM	7%	–
Cc1ccnc(Oc2ccc3nc(COc4cccc(C(=O)O)c4)n(C)c3c2)c1	0.8	–	0.458 µM	41%	33 µg/mL (≈ 84.7 µM)	3.5 ×10⁻⁶ cm/s	> 10 µM	2%	–
Cn1c(COc2cccc(C(=O)O)c2)nc2ccc(Oc3ccc(Cl)c(F)c3)nc21	2.2	92%	0.269 µM	88%	1.7 µg/mL (≈ 3.97 µM)	25.6 ×10⁻⁶ cm/s	> 10 µM	45%	inactive
Cc1ccc(Oc2ccc3nc(COc4cccc(C(=O)O)c4)n(C)c3n2)cc1C	2.2	73%	0.09 µM	74%	16 µg/mL (≈ 39.7 µM)	12.4 ×10⁻⁶ cm/s	> 10 µM	30%	inactive
Cc1ccc(Oc2ccc3nc(COc4cccc(C(=O)O)c4)n(C)c3c2)nc1C	1.3	100%	0.176 µM	81%	190 µg/mL (≈ 471 µM)	7.7 ×10⁻⁶ cm/s	> 10 µM	8%	–
Cc1ccc(Oc2ccc3nc(COc4cccc(C(=O)O)c4)n(C)c3n2)c(C)c1	2.3	63%	0.101 µM	75%	0.9 µg/mL (≈ 2.23 µM)	28.8 ×10⁻⁶ cm/s	> 10 µM	17%	inactive
Cc1cccc(Oc2ccc3nc(COc4cccc(C(=O)O)c4)n(C)c3c2)n1	0.8	100%	1.89 µM	78%	92 µg/mL (≈ 236 µM)	2.7 ×10⁻⁶ cm/s	> 10 µM	1%	–
Cn1c(COc2cccc(C(=O)O)c2)nc2ccc(Oc3cc(Cl)ccn3)cc21	1.2	–	0.615 µM	93%	11 µg/mL (≈ 26.8 µM)	10.3 ×10⁻⁶ cm/s	> 10 µM	11%	–
Cc1cnc(Oc2ccc3nc(COc4cccc(C(=O)O)c4)n(C)c3c2)c(F)c1	–	–	–	74%	–	–	–	4%	–
Cn1c(COc2cccc(C(=O)O)c2)nc2ccc(Oc3ccc(F)cn3)cc21	0.6	–	0.808 µM	87%	79 µg/mL (≈ 201 µM)	4.7 ×10⁻⁶ cm/s	> 10 µM	5%	–
